Laboratory results from patent US20260053834A1, “COVALENT MODIFIERS OF AKT1 AND USES THEREOF” (Terremoto Biosciences, Inc., priority 2023, published 2026).

How the values were obtained:
[1] = test system: LAPC4 prostate cancer cells, which express the AKT1 E17K allele; experiment: Antiproliferative effects in LAPC4 cells (CellTiter Glo, 72 h); assay type: cell-based; settings: Homo sapiens, LAPC4, 72 h, read-out: LAPC4 proliferation IC50: GeoMean IC50
Method in brief: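 Cells grown in IMDM with 12% FBS, seeded at 1,000 cells/well and treated with compound dilutions in DMSO for 72 h. Intracellular ATP read by luminescence. IC50 from a log(inhibitor) vs. response Hill fit.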

[2] = target: T1, AKT1 E17K (Homo sapiens, UniProt P31749, E17K); experiment: Live cell target engagement by NanoBRET competitive probe displacement, AKT1 E17K; assay type: binding; settings: transfected HEK293 cells, 2 h at 37° C., read-out: AKT1 E17K IC50: GeoMean IC50
T1 construct: expressed in transfected cells; host or cells: HEK293

[3] = target: T2, AKT1 WT (Homo sapiens, UniProt P31749); experiment: Live cell target engagement by NanoBRET competitive probe displacement, AKT1 WT; assay type: binding; settings: transfected HEK293 cells, 2 h at 37° C., read-out: AKT1 WT IC50: GeoMean IC50
T2 construct: expressed in transfected cells; host or cells: HEK293

[4] = target: T3, AKT2 (Homo sapiens, UniProt P31751); experiment: Live cell target engagement by NanoBRET competitive probe displacement, AKT2; assay type: binding; settings: transfected HEK293 cells, 2 h at 37° C., read-out: AKT2 IC50: GeoMean IC50
T3 construct: expressed in transfected cells; host or cells: HEK293
T3 sequence (P31751 whole entry): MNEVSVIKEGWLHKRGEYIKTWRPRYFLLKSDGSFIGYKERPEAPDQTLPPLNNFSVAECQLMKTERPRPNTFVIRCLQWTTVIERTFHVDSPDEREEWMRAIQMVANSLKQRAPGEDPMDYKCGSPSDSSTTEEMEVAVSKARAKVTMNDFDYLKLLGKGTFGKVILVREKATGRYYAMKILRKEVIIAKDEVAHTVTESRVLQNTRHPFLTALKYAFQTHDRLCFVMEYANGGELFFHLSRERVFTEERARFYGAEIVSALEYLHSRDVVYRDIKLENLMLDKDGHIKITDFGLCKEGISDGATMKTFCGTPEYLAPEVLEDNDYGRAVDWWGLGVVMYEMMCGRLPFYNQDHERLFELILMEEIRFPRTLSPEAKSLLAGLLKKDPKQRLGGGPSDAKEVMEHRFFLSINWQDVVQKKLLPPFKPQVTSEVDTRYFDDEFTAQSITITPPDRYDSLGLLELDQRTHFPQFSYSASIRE

T1 sequence (P31749 whole entry E17K): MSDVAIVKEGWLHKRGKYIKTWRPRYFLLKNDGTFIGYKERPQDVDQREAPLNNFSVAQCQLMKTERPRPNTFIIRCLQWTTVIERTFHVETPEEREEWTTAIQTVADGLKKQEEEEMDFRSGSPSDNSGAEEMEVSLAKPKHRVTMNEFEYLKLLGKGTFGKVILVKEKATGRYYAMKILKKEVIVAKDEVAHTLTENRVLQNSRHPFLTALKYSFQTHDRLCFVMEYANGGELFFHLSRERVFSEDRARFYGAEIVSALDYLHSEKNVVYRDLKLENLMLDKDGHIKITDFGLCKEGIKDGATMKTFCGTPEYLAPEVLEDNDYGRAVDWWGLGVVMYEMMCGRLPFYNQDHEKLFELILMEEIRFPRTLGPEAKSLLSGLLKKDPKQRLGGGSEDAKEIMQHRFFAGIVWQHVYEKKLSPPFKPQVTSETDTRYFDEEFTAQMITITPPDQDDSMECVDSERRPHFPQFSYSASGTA
T2 sequence (P31749 whole entry): as the sequence (P31749 whole entry E17K) above, with K17E counted along it

SMILES	IC50 [1] [nM]	IC50 [2] [nM]	IC50 [3] [nM]	IC50 [4] [nM]
Nc1ncccc1-c1nc2ccc(-n3ccc(F)n3)nc2n1-c1ccc2c(c1)CC[C@@H]2NC(=O)c1ccc(O)c(C=O)c1 [Example 75, (S)—N-(5-(2-(2-aminopyridin-3-yl)-5-(3-fluoro-1H-pyrazol-1-yl)-3H-imidazo[4,5-b]pyridin-3-yl)-2,3-dihydro-1H-inden-1-yl)-3-formyl-4-hydroxybenzamide]	100 to 2000	10 to 100	10 to 100	100 to 2000
Nc1ncccc1-c1nc2ccc(-n3cccn3)nc2n1-c1ccc2c(c1)[C@@H](O)C[C@@H]2NC(=O)c1ccc(O)c(C=O)c1 (single isomer, unassigned) [Example 99]	100 to 2000	100 to 2000	100 to 2000	100 to 2000
COc1cc(-n2cccn2)nc2c1nc(-c1cccnc1N)n2-c1ccc2c(c1)CC[C@@H]2NC(=O)c1cc(C=O)c(O)cc1F [Example 221, N-[(1S)-5-[2-(2-aminopyridin-3-yl)-7-methoxy-5-(pyrazol-1-yl)imidazo[4,5-b]pyridin-3-yl]-2,3-dihydro-1H-inden-1-yl]-2-fluoro-5-formyl-4-hydroxybenzamide]	10 to 100	10 to 100	10 to 100	100 to 2000
Nc1ncccc1-c1nc2ccc(-c3ccccc3)nc2n1-c1ccc2c(c1)CCC2C(=O)NCc1ccc(C=O)c(O)c1 (centres unmarked) [Example 10, 5-(2-(2-aminopyridin-3-yl)-5-phenyl-3H-imidazo[4,5-b]pyridin-3-yl)-N-(4-formyl-3-hydroxybenzyl)-2,3-dihydro-1H-indene-1-carboxamide]	10 to 100	< 10	10 to 100	100 to 2000
Nc1ncccc1-c1nc2ccc(-n3cccn3)nc2n1-c1cc(F)c2c(c1)CC[C@@H]2NC(=O)c1ccc(O)c(C=O)c1 [Example 189, N-[(1S)-5-[2-(2-aminopyridin-3-yl)-5-(pyrazol-1-yl)imidazo[4,5-b]pyridin-3-yl]-7-fluoro-2,3-dihydro-1H-inden-1-yl]-3-formyl-4-hydroxybenzamide]	≥ 2000	100 to 2000	100 to 2000	≥ 2000
Nc1ncccc1-c1nc2ccc(-c3cscn3)nc2n1-c1ccc2c(c1)CC[C@@H]2NC(=O)c1ccc(O)c(C=O)c1 [Example 88, N-[(1S)-5-[2-(2-aminopyridin-3-yl)-5-(1,3-thiazol-4-yl)imidazo[4,5-b]pyridin-3-yl]-2,3-dihydro-1H-inden-1-yl]-3-formyl-4-hydroxybenzamide]	10 to 100	10 to 100	10 to 100	100 to 2000
Cc1noc(-c2ccc3nc(-c4cccnc4N)n(-c4ccc5c(c4)CC[C@@H]5NC(=O)c4ccc(O)c(C=O)c4)c3n2)n1 [Example 179, N-[(1S)-5-[2-(2-aminopyridin-3-yl)-5-(3-methyl-1,2,4-oxadiazol-5-yl)imidazo[4,5-b]pyridin-3-yl]-2,3-dihydro-1H-inden-1-yl]-3-formyl-4-hydroxybenzamide]	100 to 2000	10 to 100	10 to 100	100 to 2000
COc1ccn(-c2ccc3nc(-c4cccnc4N)n(-c4ccc5c(c4)CC[C@@H]5NC(=O)c4ccc(O)c(C=O)c4)c3n2)n1 [Example 106, N-[(1S)-5-[2-(2-aminopyridin-3-yl)-5-(3-methoxypyrazol-1-yl)imidazo[4,5-b]pyridin-3-yl]-2,3-dihydro-1H-inden-1-yl]-3-formyl-4-hydroxybenzamide]	10 to 100	10 to 100	10 to 100	100 to 2000
Cc1csc(-c2ccc3nc(-c4cccnc4N)n(-c4ccc5c(c4)CC[C@@H]5NC(=O)c4ccc(O)c(C=O)c4)c3n2)n1 [Example 133, (S)—N-(5-(2-(2-aminopyridin-3-yl)-5-(4-methylthiazol-2-yl)-3H-imidazo[4,5-b]pyridin-3-yl)-2,3-dihydro-1H-inden-1-yl)-3-formyl-4-hydroxybenzamide]	10 to 100	< 10	< 10	10 to 100
Nc1ncccc1-c1nc2ccc(-c3cc4n(n3)CCOC4)nc2n1-c1ccc2c(c1)CC[C@@H]2NC(=O)c1cc(C=O)c(O)cc1F [Example 246, N-[(1S)-5-[2-(2-aminopyridin-3-yl)-5-{4H,6H,7H-pyrazolo[3,2-c][1,4]oxazin-2-yl}imidazo[4,5-b]pyridin-3-yl]-2,3-dihydro-1H-inden-1-yl]-2-fluoro-5-formyl-4-hydroxybenzamide]	10 to 100	10 to 100	10 to 100	100 to 2000
CN(C)C(=O)Nc1ccc(C(=O)N[C@H]2CCc3cc(-n4c(-c5cccnc5N)nc5ccc(-c6ccccc6)nc54)ccc32)cc1C=O [Example 63, (S)—N-(5-(2-(2-aminopyridin-3-yl)-5-phenyl-3H-imidazo[4,5-b]pyridin-3-yl)-2,3-dihydro-1H-inden-1-yl)-4-(3,3-dimethylureido)-3-formylbenzamide]	< 10	< 10	< 10	10 to 100
Cc1cc(C(=O)N[C@H]2CCc3cc(-n4c(-c5cccnc5N)nc5ccc(-c6ccccc6)nc54)ccc32)cc(C=O)c1O [Example 41, N-[(1S)-5-[2-(2-aminopyridin-3-yl)-5-phenylimidazo[4,5-b]pyridin-3-yl]-2,3-dihydro-1H-inden-1-yl]-3-formyl-4-hydroxy-5-methylbenzamide]	100 to 2000	100 to 2000	100 to 2000	≥ 2000

Results, then the compound that gave them:

IC50 [1] [nM]	IC50 [2] [nM]	IC50 [3] [nM]	IC50 [4] [nM]	SMILES
100 to 2000	10 to 100	100 to 2000	100 to 2000	Nc1ncccc1-c1nc2ccc(-c3ccccc3)nc2n1-c1ccc2c(c1)CC[C@@H]2NC(=O)c1cc(C=O)c(O)c(Cl)n1 [Example 176, (S)—N-(5-(2-(2-aminopyridin-3-yl)-5-phenyl-3H-imidazo[4,5-b]pyridin-3-yl)-2,3-dihydro-1H-inden-1-yl)-6-chloro-4-formyl-5-hydroxypicolinamide]
100 to 2000	10 to 100	100 to 2000	100 to 2000	[2H]C(=O)c1cc(C(=O)N[C@H]2CCc3cc(-n4c(-c5cccnc5N)nc5ccc(-n6ccc(F)n6)nc54)ccc32)ccc1O [Example 190, (S)—N-(5-(2-(2-aminopyridin-3-yl)-5-(3-fluoro-1H-pyrazol-1-yl)-3H-imidazo[4,5-b]pyridin-3-yl)-2,3-dihydro-1-H-inden-1-yl)-3-(formyl-d)-4-hydroxybenzamide]
100 to 2000	10 to 100	10 to 100	100 to 2000	Cc1cnn(-c2ccc3nc(-c4cccnc4N)n(-c4ccc5c(c4)CC[C@@H]5NC(=O)c4ccc(O)c(C=O)c4)c3n2)c1 [Example 77, (S)—N-(5-(2-(2-aminopyridin-3-yl)-5-(4-methyl-1H-pyrazol-1-yl)-3H imidazo[4,5-b]pyridin-3-yl)-2,3-dihydro-1H-inden-1-yl)-3-formyl-4-hydroxybenzamide]
≥ 2000	≥ 2000	100 to 2000	100 to 2000	CC1(NC(=O)c2ccc(O)c(C=O)c2)CCc2cc(-n3c(-c4cccnc4N)nc4ccc(-n5cccn5)nc43)ccc21 (centres unmarked) [Example 219, N-(5-(2-(2-aminopyridin-3-yl)-5-(1H-pyrazol-1-yl)-3H-imidazo[4,5-b]pyridin-3-yl)-1-methyl-2,3-dihydro-1H-inden-1-yl)-3-formyl-4-hydroxybenzamide]
10 to 100	10 to 100	10 to 100	10 to 100	Nc1ncccc1-c1nc2ccc(-n3cccn3)nc2n1-c1ccc2c(c1)CC[C@@H]2NC(=O)c1cc(C=O)c(O)c(F)c1F [Example 82, (S)—N-(5-(2-(2-aminopyridin-3-yl)-5-(1H-pyrazol-1-yl)-3H-imidazo[4,5-b]pyridin-3-yl)-2,3-dihydro-1H-inden-1-yl)-2,3-difluoro-5-formyl-4-hydroxybenzamide]
≥ 2000	10 to 100	10 to 100	≥ 2000	Nc1ncc(F)cc1-c1nc2ccc(-n3cccn3)nc2n1-c1ccc2c(c1)CC[C@@H]2NC(=O)c1ccc(O)c(C=O)c1 [Example 163, (S)—N-(5-(2-(2-amino-5-fluoropyridin-3-yl)-5-(1H-pyrazol-1-yl)-3H-imidazo[4,5-b]pyridin-3-yl)-2,3-dihydro-1H-inden-1-yl)-3-formyl-4-hydroxybenzamide]
100 to 2000	10 to 100	10 to 100	100 to 2000	Nc1ncccc1-c1nc2c(N3CCC3)cc(-n3cccn3)nc2n1-c1ccc2c(c1)CC[C@@H]2NC(=O)c1ccc(O)c(C=O)c1 [Example 231, N-[(1S)-5-[2-(2-aminopyridin-3-yl)-7-(azetidin-1-yl)-5-(pyrazol-1-yl)imidazo[4,5-b]pyridin-3-yl]-2,3-dihydro-1H-inden-1-yl]-3-formyl-4-hydroxybenzamide]
100 to 2000	10 to 100	10 to 100	100 to 2000	COc1cnn(-c2ccc3nc(-c4cccnc4N)n(-c4ccc5c(c4)CC[C@@H]5NC(=O)c4ccc(O)c(C=O)c4)c3n2)c1 [Example 83, N-[(1S)-5-[2-(2-aminopyridin-3-yl)-5-(4-methoxypyrazol-1-yl)imidazo[4,5-b]pyridin-3-yl]-2,3-dihydro-1H-inden-1-yl]-3-formyl-4-hydroxybenzamide]
